US6602853B1, “Antigenic peptides reacting with anti-ovary antibodies” (Bio Merieux, priority 1996, dated 2003)
Bridges are numbered along the chain shown (N, C = ends). Where no end group is shown, it is not given here.

B1: β-chain of FSH: β-chain (β-subunit) of follicle stimulating hormone (protein)
chain: NSCELTNITIAIEKEECRFCISINTTWCAGYCYTRDLVYKDPARPKIQKTCTFKELVYETVRVPGCAHHADSLYTYPVATQCHCGKCDSDSTDCTVRGLGPSYCSFGEMKE

Columns and labels:
[1] = tested on: anti-ovary antibodies (AOA); assay: ELISA on 30 patient sera: correlation of serum reactivity toward crude ovarian antigen and toward each peptide (Example 2); assay type: binding, human; settings: for r value, correlation between reactivity of sera toward ovarian antigen and toward the peptide, IgA AOA / r value, correlation between reactivity of sera toward ovarian antigen and toward the peptide, IgG AOA / r value, correlation between reactivity of sera toward ovarian antigen and toward the peptide, IgM AOA / correlation between reactivity of sera toward ovarian antigen and toward the antigen tested, in words: 30 sera from patients, ELISA; for r value, correlation between reactivity of sera toward ovarian antigen and toward the peptide, IgA AOA: isotype IgA; for r value, correlation between reactivity of sera toward ovarian antigen and toward the peptide, IgG AOA: isotype IgG; for r value, correlation between reactivity of sera toward ovarian antigen and toward the peptide, IgM AOA: isotype IgM; for antigenic or immunogenic activity toward anti-ovary antibodies, in words: comparison among oligopeptides, Example 2; for correlation between reactivity of sera toward ovarian antigen and toward the antigen tested, in words: compared among antigens
Procedure: (§1) The concentration of molecules to be adsorbed was determined by checkerboard experiments for each antigen. It is about 1 μg per well.
(§2) The binding of the antigens to the solid phase is performed in one night at +4° C. in the amount of 100 μl per well of the solution of antigen in carbonate-bicarbonate buffer. The plate is emptied. The sites of the solid phase still unoccupied are saturated on incubation for one hour at 37° C. with 200 μl per well of 5% powdered milk reconstituted in PBS.
The plate is emptied and washed 3 times in PBS. The samples are distributed in the amount of 100 μl per well. The plate is incubated for 45 minutes at 37° C.
(§3) The anti-isotypes are diluted in the same solution that was used for the dilution of the samples:
(§4) The plate is again emptied and washed 3 times in PBS. Then the anti-isotypes are distributed in the amount of 100 μl per well. The plate is incubated for 45 minutes at 37° C.
(§5) The developer solution is prepared on the spot, as follows for one plate:
(§6) After 3 further washings of the plate, 100 μl of developer solution are distributed into each well. After appearance of a yellow colour of greater or lesser intensity the reaction is stopped with 50 μl of H2SO4. The plate is read on the spectrophotometer at 492 nm using the Multiskan II reader.
Any ratio greater than 1 is considered as positive.
These four peptides obtained in lyophilized form were, after reconstitution and dialysis, used as antigens in a series of ELISA tests on 30 sera from patients.
Moreover, these same sera were tested against the crude ovarian antigens.
The immunoenzymatic technique used is that described in Example 1.

[2] = tested on: anti-β-FSH monoclonal antibodies 22A3G7; 5H3E8; assay: Recognition by anti-β-FSH monoclonal antibodies 22A3G7 and 5H3E8; assay type: binding; settings: antibodies immunoreactive with metrodine and ovarian extracts
[3] = tested on: anti-ovary antibodies (AOA); assay: ELISA on 295 sera of IVF patients: correlation of reactivity toward total ovarian extract and toward peptide SEQ ID NO:1 (Example 3); assay type: binding, human; settings: for r value, IgA AOA vs IgA SEQ ID No.1: crude ovarian antigen IgA vs peptide IgA
Procedure: as §1, §2
The samples to be tested are diluted in PBS to which 0.5% BSA and 0.2% Tween 20 have been added: dilution to 1/50 for the search for anti-ovary and anti-corpus luteum antibodies. The plate is emptied and washed 3 times in PBS. The samples are distributed in the amount of 100 μl per well. The plate is incubated for 45 minutes at 37° C.
as §3, §4, §5, §6
The results are firstly expressed as optical density (O.D.) then calculated as ratios relative to a control sample at the limit of positivity. Any ratio greater than 1 is considered as positive.
[…] and ninety-five sera were tested in duplicate, using the immunoenzymatic method described above, with, firstly, the total ovarian extract, and, secondly, the peptide SEQ ID NO: 1. For each antigen, the three immunoglobulin isotypes IgG, IgA and IgM were studied.
The patients included in the study were all scheduled for IVF. Their average age was 32.7±4.2 years. The average duration of the sterility was 4.8±2.8 years.
In 209 cases the serum was collected on the eighth day of the stimulation, and in 84 cases the serum was collected 15 days after the puncture.
The results of the correlation obtained between the reactivity of the sera toward the crude ovarian antigen and that of the same sera toward the peptide SEQ ID NO:1 tested, and expressed by an r value, are shown in Table II below: […]

anti-ovary antibodies = assay: Recognition by serums containing anti-ovary antibodies; assay type: binding
[4] = tested on: anti-β-FSH monoclonal antibody 7G5A1; assay: Reaction with anti-β-FSH monoclonal antibody 7G5A1; assay type: binding; settings: antibody only recognizing metrodine

Molecule	r value, correlation between reactivity of sera toward ovarian antigen and toward the peptide, IgA AOA [1]	r value, correlation between reactivity of sera toward ovarian antigen and toward the peptide, IgG AOA [1]	r value, correlation between reactivity of sera toward ovarian antigen and toward the peptide, IgM AOA [1]	antigenic or immunogenic activity toward anti-ovary antibodies, in words [1]	recognition by anti-β-FSH monoclonal antibodies 22A3G7; 5H3E8 [2]	recognition by serums containing anti-ovary antibodies (anti-ovary antibodies)	reaction with anti-β-FSH monoclonal antibody 7G5A1 [4]	correlation between reactivity of sera toward ovarian antigen and toward the antigen tested, in words [1]	also measured
SEQ ID No.2: sequence of 16 amino acids, bridged by a disulfide bond in position 5 and 7, amino acids 78-93 of the β-chain of FSH (VATQCHCGKCDSDSTD; disulfide 5-7)	0.28	0.44	0.75	weaker activity					
SEQ ID No.4: sequence of 16 amino acids, bridged by a disulfide bond in position 7 and 10, amino acids 78-93 of the β-chain of FSH (VATQCHCGKCDSDSTD; disulfide 7-10)	0.49	0.59	0.69	weaker activity					
SEQ ID No.1: linear sequence of 16 amino acids corresponding to the sequence of amino acids 78-93 of the β-chain of FSH (VATQCHCGKCDSDSTD; human FSH)	0.46	0.74	0.81	identical activity	recognized	recognized	does not react	best correlation coefficients	r value, IgA AOA vs IgA SEQ ID No.1 [3]: 0.11; r value, IgA AOA vs IgA SEQ ID No.1 ([3]; listed as SEQ ID NO:1): 0.10; r value, IgA AOA vs IgG SEQ ID No.1 ([3]; crude ovarian antigen IgA vs peptide IgG): 0.12; r value, IgA AOA vs IgM SEQ ID No.1 ([3]; crude ovarian antigen IgA vs peptide IgM): 0.01; r value, IgG AOA vs IgA SEQ ID No.1 ([3]; crude ovarian antigen IgG vs peptide IgA): 0.12; r value, IgG AOA vs IgG SEQ ID No.1 ([3]; crude ovarian antigen IgG vs peptide IgG): 0.18; r value, IgM AOA vs IgA SEQ ID No.1 ([3]; crude ovarian antigen IgM vs peptide IgA): 0.06; r value, IgM AOA vs IgG SEQ ID No.1 ([3]; crude ovarian antigen IgM vs peptide IgG): 0.10; r value, IgM AOA vs IgM SEQ ID No.1 ([3]; crude ovarian antigen IgM vs peptide IgM): 0.27
TQCHCGKC (cysteine pairing not given here) [SEQ ID No.5]				identical activity	recognized	recognized	does not react	same results as those obtained for the peptide SEQ ID No.1	
SEQ ID No.3: sequence of 16 amino acids, bridged by a disulfide bond in position 5 and 10, amino acids 78-93 of the β-chain of FSH (VATQCHCGKCDSDSTD; disulfide 5-10)	0.49	0.79	0.71	weaker activity					
B1								same results as those obtained for the peptide SEQ ID No.1	
